{"source": "paper PMC10132233", "about": "(Journal of Enzyme Inhibition and Medicinal Chemistry, 2023)", "key": {"[1]": {"biological_target": "T1, c-mesenchymal-epithelial transition factor (c-MET) (Homo sapiens, UniProt P08581)", "T1 construct": "purchased Reaction Biology Co. (Malvern, PA)", "T1 sequence (P08581 25-1390)": "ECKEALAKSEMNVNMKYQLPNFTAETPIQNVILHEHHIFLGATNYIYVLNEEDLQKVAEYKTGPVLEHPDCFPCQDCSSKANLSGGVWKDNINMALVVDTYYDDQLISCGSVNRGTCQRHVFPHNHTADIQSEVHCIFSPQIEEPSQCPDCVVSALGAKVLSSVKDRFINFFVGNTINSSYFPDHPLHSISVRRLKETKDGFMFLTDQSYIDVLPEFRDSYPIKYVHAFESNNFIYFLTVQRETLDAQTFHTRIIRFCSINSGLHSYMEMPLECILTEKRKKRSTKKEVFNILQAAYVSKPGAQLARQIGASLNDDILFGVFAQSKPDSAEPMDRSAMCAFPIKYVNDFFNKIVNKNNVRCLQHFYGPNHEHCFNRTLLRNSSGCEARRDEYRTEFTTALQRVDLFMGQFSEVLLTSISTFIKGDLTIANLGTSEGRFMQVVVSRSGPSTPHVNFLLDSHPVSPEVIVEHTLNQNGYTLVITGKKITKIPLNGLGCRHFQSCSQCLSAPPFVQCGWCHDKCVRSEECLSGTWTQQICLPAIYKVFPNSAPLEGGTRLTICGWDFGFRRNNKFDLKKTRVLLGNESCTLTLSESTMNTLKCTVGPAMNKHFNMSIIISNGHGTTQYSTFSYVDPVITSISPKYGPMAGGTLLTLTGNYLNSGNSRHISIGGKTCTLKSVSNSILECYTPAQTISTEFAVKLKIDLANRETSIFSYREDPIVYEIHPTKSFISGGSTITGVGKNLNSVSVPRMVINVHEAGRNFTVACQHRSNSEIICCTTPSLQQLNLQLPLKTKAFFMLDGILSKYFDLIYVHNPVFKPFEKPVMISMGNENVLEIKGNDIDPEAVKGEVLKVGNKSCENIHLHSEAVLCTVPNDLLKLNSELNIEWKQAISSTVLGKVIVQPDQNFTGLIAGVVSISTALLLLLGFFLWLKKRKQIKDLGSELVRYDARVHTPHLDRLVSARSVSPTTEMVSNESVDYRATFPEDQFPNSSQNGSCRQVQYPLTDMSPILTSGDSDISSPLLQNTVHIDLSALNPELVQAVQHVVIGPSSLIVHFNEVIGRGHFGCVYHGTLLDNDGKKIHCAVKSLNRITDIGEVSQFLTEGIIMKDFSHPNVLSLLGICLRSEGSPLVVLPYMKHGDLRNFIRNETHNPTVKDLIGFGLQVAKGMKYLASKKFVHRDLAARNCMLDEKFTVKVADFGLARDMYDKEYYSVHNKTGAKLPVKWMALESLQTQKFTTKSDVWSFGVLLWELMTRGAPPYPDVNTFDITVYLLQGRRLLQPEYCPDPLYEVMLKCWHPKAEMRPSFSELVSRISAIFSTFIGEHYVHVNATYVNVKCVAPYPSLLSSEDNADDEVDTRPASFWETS", "assay": "Small kinase panel, c-MET", "format": "biochemical", "details": "read-out: % kinase inhibition (relative to DMSO control) c-MET", "experimental": "Enzyme inhibitory assays were carried out as described in our previous reports in the literature. […] The HotSpot assay platform includes specific kinase/substrate pairs and required cofactors. The base reaction buffer consisted of 20 mM Hepes (pH 7.5), 10 mM MgCl2, 1 mM EGTA, 0.02% Brij35, 0.02 mg/mL BSA, 0.1 mM Na3VO4, 2 mM DTT, and 1% DMSO. The tested compounds were dissolved in 100% DMSO to a specific concentration, and serial dilution was conducted. The reaction mixture containing the tested compound and 33P-ATP was incubated at room temperature for 2 h, and radioactivity was detected using the filter-binding method."}, "PC3 cells": {"tested_on": "PC3 cells", "assay": "Cell cycle analysis (PI, ADAMII LS), PC3", "format": "cell-based, human", "details": "PC3, compound at its IC50, 24 h", "experimental": "Cell cycle progression is responsible for normal cell growth and proliferation. DNA damage can result in apoptosis, which causes cell death, or DNA repair. At specific checkpoints that serve as control mechanisms to guarantee correct cell division, the state of the cells is evaluated. Checkpoints in the cell cycle include the G1 (restriction), S […], and G2/M[29]. Anticancer medications’ function is to halt cell division at these checkpoints. Treatment with potent cytotoxic (as an anticancer) agents can determine at which phase apoptosis occurs in the cell cycle. […] PC3 and 22RV1 cells were treated with compound 9f at its IC50. The comparison data in Table 6 and Figure 3 indicate that compound 9f (test 2) arrested the cell cycle of 22RV1 and PC3 cells at the G2/M phase by 62.74% and 49.43%, respectively (Figure 3). Also, the cell population in G1 and S phases decreases after treatment (test 2) compared to a negative control (test 1).\nTo determine the effect of the tested compound on the cell cycle distribution of PC3 and 22RV1 cell lines. Cell cycles can be analysed with checking the cell cycle change compared to the control group. Control cells without any treatment were used as a reference point for determining the cell cycle arrest phase for the test sample. Cell cycle analysis was performed using the Cell Cycle Analysis Kit (ADAMII LS, NanoEntek, Seoul, South Korea). Briefly, cancer cells were first seeded in six-well plates (0.8 × 10^6 cells per well) and then incubated for 24 h at 37 °C in a 5% CO2-containing atmosphere. […] 25 µL of sample mixture was loaded into ADAMII LS assay slide, then the slide was incubated at room temperature for 1 min in the dark and run on the ADAMII LS fluorescence cell analyser. Cell cycle distribution was calculated using ADAMII LS software (ADAMII LS, NanoEntek, Seoul, South Korea)."}, "EGFR": {"biological_target": "EGFR (Homo sapiens, UniProt P00533)", "sequence (P00533 25-1210)": "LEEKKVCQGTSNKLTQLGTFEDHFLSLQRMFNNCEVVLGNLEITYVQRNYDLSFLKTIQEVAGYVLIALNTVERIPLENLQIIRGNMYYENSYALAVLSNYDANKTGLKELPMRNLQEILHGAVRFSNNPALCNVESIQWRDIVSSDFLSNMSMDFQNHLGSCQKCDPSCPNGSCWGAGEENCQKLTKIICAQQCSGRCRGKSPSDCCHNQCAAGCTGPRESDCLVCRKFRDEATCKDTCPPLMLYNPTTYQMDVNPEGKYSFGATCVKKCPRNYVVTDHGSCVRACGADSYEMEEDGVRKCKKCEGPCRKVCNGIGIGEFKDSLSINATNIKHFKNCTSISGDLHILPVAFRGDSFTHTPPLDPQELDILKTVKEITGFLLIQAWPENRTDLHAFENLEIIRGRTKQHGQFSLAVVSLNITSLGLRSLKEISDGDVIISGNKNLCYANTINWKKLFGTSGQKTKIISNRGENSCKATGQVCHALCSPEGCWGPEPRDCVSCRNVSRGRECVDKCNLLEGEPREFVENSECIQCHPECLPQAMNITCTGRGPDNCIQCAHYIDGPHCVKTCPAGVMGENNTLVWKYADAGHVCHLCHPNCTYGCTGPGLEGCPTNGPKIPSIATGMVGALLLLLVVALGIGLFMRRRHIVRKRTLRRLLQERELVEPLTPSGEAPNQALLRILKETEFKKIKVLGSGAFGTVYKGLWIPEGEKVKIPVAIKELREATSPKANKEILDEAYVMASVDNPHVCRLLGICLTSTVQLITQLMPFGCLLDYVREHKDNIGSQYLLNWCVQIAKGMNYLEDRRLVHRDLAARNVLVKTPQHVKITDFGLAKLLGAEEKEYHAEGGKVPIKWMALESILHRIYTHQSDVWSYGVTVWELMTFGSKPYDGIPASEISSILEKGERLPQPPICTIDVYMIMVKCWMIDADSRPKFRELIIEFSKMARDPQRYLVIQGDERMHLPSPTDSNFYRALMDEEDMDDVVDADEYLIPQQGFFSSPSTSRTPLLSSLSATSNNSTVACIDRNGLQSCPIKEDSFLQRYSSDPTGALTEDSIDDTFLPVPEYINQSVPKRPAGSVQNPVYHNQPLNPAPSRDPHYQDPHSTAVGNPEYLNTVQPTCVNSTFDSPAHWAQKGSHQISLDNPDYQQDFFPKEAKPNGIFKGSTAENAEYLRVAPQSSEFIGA", "assay": "HotSpot kinase assay over EGFR (Reaction Biology)"}}}
{"compound": "COc1cc2ncnc(Nc3ccc(Oc4cccc(C(F)(F)F)c4)c(Cl)c3)c2cc1OCCCCn1ccnc1[N+](=O)[O-]", "note": "[Compound 9f, N-(3-Chloro-4-(3-(trifluoromethyl)phenoxy)phenyl)-7-methoxy-6-(4-(2-nitro-1H-imidazol-1-yl)butoxy)quinazolin-4-amine]", "values": [{"measurement": "inhibition at 10 µM", "setting": "[1]", "value": 24.6, "unit": "%"}, {"measurement": "G0/G1 phase Percent", "setting": "PC3 cells", "value": 7.22, "unit": "%"}, {"measurement": "G2/M phase Percent", "setting": "PC3 cells", "value": 49.43, "unit": "%"}, {"measurement": "S phase Percent", "setting": "PC3 cells", "value": 28.14, "unit": "%"}, {"measurement": "IC50", "setting": "EGFR", "value": 2.3, "unit": "nM"}, {"measurement": "fold of potency over EGFR compared to TAK-285", "setting": "EGFR; ratio of IC50 values", "value": 10, "unit": "fold"}, {"measurement": "fold of potency over EGFR compared to staurosporine", "setting": "EGFR; ratio of IC50 values", "value": 38, "unit": "fold"}, {"measurement": "inhibition at 10 µM", "setting": "EGFR; read-out: % kinase inhibition EGFR", "value": 99.3, "unit": "%"}]}
